The test system of assay [1] is A549. Briefly: Induction of early stage apoptosis in human A549 cells assessed as mitotracker dye uptake. The class given is functional, cell-based.
Assay [2] has as its system A549. As to the kind of experiment: Cytotoxicity against human A549 cells after 24 hrs by propidium iodide assay. It is filed as functional, cell-based. The note with it: A549, 24 h.
Assay [3] has as its system A549. As to the kind of experiment: Cytotoxicity against human A549 cells after 24 hrs by YO-PRO-1 assay. It is filed as functional, cell-based. Conditions: A549, 24 h.
In assay [4] the test system is A549. Briefly: Cytotoxicity against human A549 cells at 100 uM. It is filed as functional.
The subject of assay [5] is A549. Briefly: Induction of early stage apoptosis in human A549 cells assessed as mitotracker dye uptake at 30 uM after 24 hrs. It is filed as functional, cell-based.

The structures appear in SMILES notation. Active and inactive are the calls of the source. The calls are words filed in the database; no cut-off is given here.

The IC50 is the concentration at which inhibition is half-maximal. As usually defined, the inhibition is the share of the control response that was lost under treatment. High values mean a strong effect, low ones a weak effect.

For `COc1cc(C[C@@H](C)[C@H](C)Cc2ccc(O)c(OC)c2)ccc1O` [(-)-DIHYDROGUAIARETICACID], the half-maximal inhibitory concentration (IC50) in assay [1] came to 31.2 µM; in assay [2], 7.49 µM; in assay [3], 7.49 µM.

Take `COc1ccc([C@@H]2[C@@H](C)[C@@H](C)[C@@H]2c2ccc(OC)c(OC)c2)cc1OC` [CINBALANSAN]: 100 µM produced 34% inhibition in assay [4]. For the same compound, in assay [5], the outcome was Active.

For `COc1cc2c(c(OC)c1OC)-c1ccc(OC)c(=O)cc1[C@@H](NC(C)=O)CC2` [COLCHICINE], the concentration for half-maximal inhibition (IC50) in assay [2] and in assay [3] was 0.0108 µg/mL throughout.

In turn, `COc1cc([C@@H]2[C@@H](C)[C@H](C)[C@H]2c2ccc(O)c(OC)c2)ccc1O` [ENDIANDRIN A] had an inhibition at 100 µM in assay [4] of 76%.

Regarding `COc1cc([C@@H]2[C@@H](C)[C@@H](C)[C@@H]2c2ccc(O)c(OC)c2)ccc1O` [ENDIANDRIN B], in assay [4], 100 µM produced 75% inhibition.

In turn, `CC(=O)O[C@H]1C(=O)[C@@]2(C)[C@H]([C@H](OC(=O)c3ccccc3)[C@]3(O)C[C@H](OC(=O)[C@H](O)[C@@H](NC(=O)c4ccccc4)c4ccccc4)C(C)=C1C3(C)C)[C@]1(OC(C)=O)CO[C@@H]1C[C@@H]2O` [PACLITAXEL] registered an IC50 in assay [3] of 0.0196 µg/mL.

As for `COC[C@H]1OC(=O)c2coc3c2[C@@]1(C)C1=C(C3=O)[C@@H]2CCC(=O)[C@@]2(C)C[C@H]1OC(C)=O` [WORTMANNIN], the IC50 in assay [2] and in assay [3] was 0.00428 µg/mL each time.

For the origin of these results see ChEMBL document CHEMBL1143379, “Isolation, structure elucidation and cytotoxic evaluation of endiandrin B from the Australian rainforest plant Endiandra anthropophagorum” (Bioorg Med Chem, 2009).
